Test results reported in paper PMC12435834, “The GLYT1 inhibitor bitopertin mitigates erythroid PPIX production and liver disease in erythroid protoporphyria” (The Journal of Clinical Investigation, 2025).

How the values were obtained:
GLYT1 [1] = target: T1, GLYT1 (Mus musculus, UniProt P28571); assay: ex vivo 3H-glycine uptake by peripheral blood cells of orally dosed mice vs free plasma concentration
T1 construct: gene Slc6a9
T1 sequence (P28571 1-692): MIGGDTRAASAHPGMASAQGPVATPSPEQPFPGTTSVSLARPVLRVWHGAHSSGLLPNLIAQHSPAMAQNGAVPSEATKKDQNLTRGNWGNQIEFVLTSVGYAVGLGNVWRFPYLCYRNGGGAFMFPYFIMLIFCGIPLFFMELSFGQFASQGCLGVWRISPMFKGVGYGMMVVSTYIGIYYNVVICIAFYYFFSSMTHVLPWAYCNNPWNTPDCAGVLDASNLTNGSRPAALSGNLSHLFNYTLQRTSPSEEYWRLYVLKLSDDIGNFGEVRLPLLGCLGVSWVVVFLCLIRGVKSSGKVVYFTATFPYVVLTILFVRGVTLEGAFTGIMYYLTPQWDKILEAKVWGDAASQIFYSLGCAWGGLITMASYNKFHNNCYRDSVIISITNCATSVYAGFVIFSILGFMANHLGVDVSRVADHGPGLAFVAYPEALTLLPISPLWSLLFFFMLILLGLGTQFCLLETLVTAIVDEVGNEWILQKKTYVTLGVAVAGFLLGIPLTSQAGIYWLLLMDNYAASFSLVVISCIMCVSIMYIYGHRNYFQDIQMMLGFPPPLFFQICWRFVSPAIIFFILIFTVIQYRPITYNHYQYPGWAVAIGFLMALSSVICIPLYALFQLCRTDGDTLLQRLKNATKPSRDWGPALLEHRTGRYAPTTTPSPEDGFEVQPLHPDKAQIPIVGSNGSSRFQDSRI

GLYT1 [2] = target: T2, GLYT1 (Rattus norvegicus, UniProt P28572); assay: ex vivo 3H-glycine uptake by peripheral blood cells of orally dosed rats vs free plasma concentration
T2 construct: gene Slc6a9
T2 sequence (P28572 1-638): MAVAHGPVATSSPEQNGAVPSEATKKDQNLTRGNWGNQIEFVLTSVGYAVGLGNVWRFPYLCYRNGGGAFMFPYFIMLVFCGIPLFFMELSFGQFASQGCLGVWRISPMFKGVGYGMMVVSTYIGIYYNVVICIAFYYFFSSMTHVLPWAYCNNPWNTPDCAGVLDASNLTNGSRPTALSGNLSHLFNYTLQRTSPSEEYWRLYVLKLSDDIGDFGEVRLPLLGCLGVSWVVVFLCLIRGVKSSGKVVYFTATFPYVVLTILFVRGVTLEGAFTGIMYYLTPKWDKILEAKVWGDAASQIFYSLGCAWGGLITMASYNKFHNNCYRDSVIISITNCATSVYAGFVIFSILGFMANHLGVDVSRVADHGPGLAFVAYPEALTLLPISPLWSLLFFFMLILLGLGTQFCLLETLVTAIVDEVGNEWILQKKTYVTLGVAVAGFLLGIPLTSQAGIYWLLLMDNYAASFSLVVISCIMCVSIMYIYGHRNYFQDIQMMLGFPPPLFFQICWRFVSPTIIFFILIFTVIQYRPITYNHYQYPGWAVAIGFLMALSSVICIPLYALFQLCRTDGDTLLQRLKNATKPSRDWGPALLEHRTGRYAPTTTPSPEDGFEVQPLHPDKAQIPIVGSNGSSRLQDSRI

EC50 (GLYT1 [1]): 1.2 nM
EC50 (GLYT1 [2]): 2 nM
Structure (SMILES): C[C@H](Oc1ccc(S(C)(=O)=O)cc1C(=O)N1CCN(c2ncc(C(F)(F)F)cc2F)CC1)C(F)(F)F [bitopertin, [4-(3-fluoro-5-trifluoromethylpyridin-2-yl)piperazin-1-yl][5-methanesulfonyl-2-((S)-2,2,2-trifluoro-1-methylethoxy)phenyl]methanone]
